# From ChEMBL document CHEMBL1949647, “Design, synthesis and biological evaluation of peptidyl-vinylaminophosphonates as novel cysteine protease inhibitors” (Bioorg Med Chem, 2011)
# Peptide text beside a SMILES is read from it. * marks the point of attachment. Cbz = O=C(OCc1ccccc1)*
# Target: T1, Papain (Carica papaya, UniProt P00784)
# T1 sequence (P00784 whole entry): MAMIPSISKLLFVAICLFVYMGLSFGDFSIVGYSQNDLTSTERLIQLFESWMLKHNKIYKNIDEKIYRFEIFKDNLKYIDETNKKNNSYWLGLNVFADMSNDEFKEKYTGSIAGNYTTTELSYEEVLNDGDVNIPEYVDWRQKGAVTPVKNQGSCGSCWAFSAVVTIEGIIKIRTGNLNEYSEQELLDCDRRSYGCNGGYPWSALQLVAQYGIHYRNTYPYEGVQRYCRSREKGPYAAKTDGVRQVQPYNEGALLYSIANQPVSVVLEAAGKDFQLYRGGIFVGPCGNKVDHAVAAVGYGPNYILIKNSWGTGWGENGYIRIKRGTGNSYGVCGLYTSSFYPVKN
# Assay: Inhibition of papaya papain
row,SMILES,Ki [µM]
1,COC(=O)CNC(=O)[C@H](Cc1ccccc1)NC(=O)OCc1ccccc1 (Cbz-Phe-Gly-OMe),2700
2,CC[C@H](C)[C@H](NC(=O)[C@H](CCCNC(=N)N)NC(=O)OCc1ccccc1)C(=O)N[C@H](/C=N/NC(N)=O)Cc1ccccc1,0.023
3,CC(C)[C@H](NC(=O)[C@H](CCCNC(=N)N)NC(=O)N[C@@H](Cc1ccccc1)C(=O)O)C(=O)N[C@H](C=O)CCCNC(=N)N [ANTIPAIN],265
4,O=C(O)CNC(=O)[C@H](Cc1ccccc1)NC(=O)OCc1ccccc1 (Cbz-Phe-Gly-OH),19600

# Target: Cathepsin B (Homo sapiens, UniProt P07858)
# Assay: Inhibition of cathepsin B
row,SMILES,Ki [µM]
1,COC(=O)CNC(=O)[C@H](Cc1ccccc1)NC(=O)OCc1ccccc1 (Cbz-Phe-Gly-OMe),13500
2,CC[C@H](C)[C@H](NC(=O)[C@H](CCCNC(=N)N)NC(=O)OCc1ccccc1)C(=O)N[C@H](/C=N/NC(N)=O)Cc1ccccc1,0.5
3,O=C(O)CNC(=O)[C@H](Cc1ccccc1)NC(=O)OCc1ccccc1 (Cbz-Phe-Gly-OH),5610
4,C[C@H](NC(=O)OCc1ccccc1)C(=O)N[C@@H](Cc1ccccc1)C(=O)OCF,174000

# Target: T1, Papain
# Assay: Inhibition of papaya papain using methyl hippurate as substrate by titrimetric method
row,SMILES,Ki [µM]
1,COC(=O)N[C@@H](Cc1ccccc1)C(=O)NCC#N,6890

# Target: T1, Papain
# Assay: Inhibition of papaya papain using BAPNA as substrate assessed as p-nitroaniline release by spectrophotometric analysis
row,SMILES,IC50 [µM]
1,CCOP(=O)(/C=C/C(NC(=O)[C@H](Cc1ccccc1)NC(=O)OC(C)(C)C)c1ccccc1)OCC (mixture of isomers),40
2,CCOP(=O)(/C=C/C(NC(=O)[C@H](Cc1ccccc1)NC(=O)[C@H](Cc1ccccc1)NC(=O)OC(C)(C)C)c1ccccc1)OCC (mixture of isomers),83
3,CCOP(=O)(/C=C/C(NC(=O)[C@H](Cc1ccccc1)NC(=O)[C@H](Cc1ccccc1)NC(=O)OCc1ccccc1)c1ccccc1)OCC (mixture of isomers),125
4,CCOP(=O)(/C=C/C(NC(=O)[C@H](Cc1c[nH]c2ccccc12)NC(=O)OCc1ccccc1)c1ccccc1)OCC (mixture of isomers),> 200
5,CCOP(=O)(/C=C/C(NC(=O)[C@H](Cc1ccccc1)NC(=O)OCc1ccccc1)c1ccccc1)OCC (mixture of isomers),30
6,CCOP(=O)(/C=C/C(NC(=O)[C@H](CC(C)C)NC(=O)OCc1ccccc1)c1ccccc1)OCC (mixture of isomers),> 200
7,CCOP(=O)(/C=C/C(NC(=O)[C@H](CC(C)C)NC(=O)OC(C)(C)C)c1ccccc1)OCC (mixture of isomers),> 200
8,CCOP(=O)(/C=C/C(NC(=O)[C@H](CC(C)C)NC(=O)[C@H](Cc1ccccc1)NC(=O)OC(C)(C)C)c1ccccc1)OCC (mixture of isomers),132
9,CCOP(=O)(/C=C/C(NC(=O)[C@H](CC(C)C)NC(=O)OCC1c2ccccc2-c2ccccc21)c1ccccc1)OCC (mixture of isomers),> 200
10,CCOP(=O)(/C=C/C(NC(=O)[C@H](Cc1ccc(O)cc1)NC(=O)OCc1ccccc1)c1ccccc1)OCC (mixture of isomers),54
